Where two headings read alike, the source gives them in different places. Where a SMILES comes first, the peptide text is derived from it.

In data set [1] the target is T1, N-terminal site of human angiotensin-converting enzyme (Active N-terminal ACE) (Homo sapiens, UniProt P12821, H988K/H992K).
T1 construct: made in house; host or cells: CHO cells
Description: ACE inhibition, quenched fluorescence substrate, N-terminal mutant (C-terminal site inactive). The data set is classed as biochemical. The conditions noted are these: for degree of selectivity in favour of the N-terminal site (FIG. 3): N-terminal site at 100 nM, C-terminal site at 5 μM. On the procedure:
(§1) Said mixtures were evaluated at final peptide concentrations of 200 nM in order to determine their ACE inhibitory capacity. To assay ACE, a new quenched fluorescence ACE substrate (Mca-Ala-Ser-Asp-Lys-Dpa) was developed, where Mca represents methoxy coumarine and Dpa 2-(N-dinitrophenyl)aminopropionic acid. Said substrate, which is […], emits an intense fluorescent signal after splitting, between the Asp and Lys residues, by ACE. Using this type of substrate, it is possible to test the inhibitory power of a very large number of compounds in Elisa plates.
(§2) The inhibitory power of the compounds is determined in a conventional competition test based on the breakdown of the quenched fluorescence substrate […]. The breakdown of said substrate by ACE results in the observation of a fluorescent signal at 400 nm, when the sample is excited at 328 nm. The inhibition experiments are conducted in Elisa plate wells, in volumes of 200 μl of buffer: pH 6.8, 50 mM Hepes, 200 mM NaCl, 1 mM ZnCl2, at 25° C., in a Dynatech Fluorolite 1000 type unit. The concentration of the substrate in a typical experiment is 20 μM. For the inhibition experiments, the inhibitor is placed in the presence of the enzyme for 45 min, and the reaction is then initiated by simply adding a very small volume of substrate. The inhibition percentages are calculated from the initial rate variations in the presence of inhibitor. The breakdown kinetics were determined from the record of the fluorescence variations over a 40 min time interval.
(§3) Said mutants were produced from CHO cells.

Data set [2] deals with T2, C-terminal site of human angiotensin-converting enzyme (Active C-terminal ACE) (Homo sapiens, UniProt P12821, H390K/H394K).
T2 construct: made in house; host or cells: CHO cells
Put plainly: ACE inhibition, quenched fluorescence substrate, C-terminal mutant (N-terminal site inactive). As to conditions: C-terminal mutant of ACE from CHO cells. The data set is classed as biochemical. On the procedure:
as §1, §2, §3

Data set [3] concerns ACE N-terminal domain versus C-terminal domain. As to conditions: in vitro; cited from earlier work.
For data set [4], the system named is plasma AcSDKP. As to conditions: single dose, healthy volunteer subjects; cited from earlier work.
Data set [5] deals with plasma Ac-Ser-Asp-Lys-Pro (Ac-SDKP). Description: Plasma Ac-SDKP concentration after 30 minute infusion. The data set is classed as in vivo. The conditions noted are these: mice, infusion for 30 minutes; RXP 407 0.1, 1, 10 mg/kg; Lisinopril 10 mg/kg. On the procedure: For this purpose, the mice undergo an infusion of RXP 407 for 30 minutes, at doses of 0.1, 1 and 10 mg/kg and the Ac-Ser-Asp-Lys-Pro-(Ac-SDKP) peptide concentration of the mouse plasma is determined.
The Ac-Ser-Asp-Lys-Pro is determined by a competition immunoenzyme assay using polyclonal antibodies and Ac-SDKP linked to Electrophorus Electricus acetyicholinesterase.
The same plasma Ac-SDKP measurements are made on mice infused with Lisinopril of a 10 mg/kg dose and on non-infused control mice. Lisinopril is an inhibitor used in clinical practice which inhibits both active sites of ACE non-selectively.

Data set [6] deals with plasma renin. Put plainly: Plasma renin level (angiotensin I formed) after infusion. The conditions noted are these: mice; RXP 407 0.1, 1, 10 mg/kg; Lisinopril 10 mg/kg. Type of data set: in vivo. On the procedure:
In this example, the effect of RXP 407 on the levels of renin, another enzyme involved in arterial pressure regulation, is determined. Inhibition of ACE with a conventional inhibitor of said enzyme stops the hydrolysis of angiotensin I into angiotensin II. Angiotensin is indeed one of the physiological substrates of ACE. The decrease in the angiotensin II level in plasma by a retrocontrol mechanism, increases the plasma level of renin, an enzyme directly involved in the production of angiotensin I, from angiotensinogen.
In this way, the inhibition of ACE may be monitored indirectly by the plasma renin level.
This level may be evaluated by the capacity of renin in plasma samples to hydrolyse excess angiotensinogen present in mouse plasma. The formation of angiotensin I is then measured by a radioimmunological assay and the renin level is expressed in ng of angiotensin I formed per ml of plasma and per hour of incubation.

Data set [7] can be described thus: Elimination and metabolism of tritiated RXP 407 in vivo. The conditions noted are these: rat. Also noted: species or system rats. As for the experimental part: (§4) For this purpose, an RXP 407 comprising three tritium atoms on the N-acetyl group is synthesised to be able to conduct a study on the pharmacokinetics and metabolism of said molecule in rats, by injecting said product at doses of 0.1, 1 and 5 mg/kg by intravenous bolus.

Data set [8] can be described thus: Plasma concentration of tritiated RXP 407 after intravenous bolus. The conditions noted are these: rat, in vivo, 5 mg/kg. On the set-up: species or system rats. As for the experimental part:
as §4
The plasma concentration of RXP 407 as a function of time is then determined.
The results obtained are represented in FIG. 7. Curve 1 corresponds to 0.1 mg/kg, curve 2 to 1 mg/kg and curve 3 to 5 mg/kg. The dotted curve illustrates the Ki of RXP 407 (20 nM).

The target of data set [9] is T3, wild human ACE (Homo sapiens, UniProt P12821).
T3 construct: made in house; host or cells: CHO cells
Description: Inhibition of natural ACE as a function of RXP 407 concentration. The conditions noted are these: wild human ACE from CHO cells. The data set is classed as biochemical. As for the experimental part: as §2
In this example, the RXP 407 peptide is used as a natural ACE inhibitor, and the effect of the RXP 407 concentration (in nM) on the ACE inhibition percentage is studied.
The inhibitory power of the compound is determined as in example 1 using wild human ACE produced by CHO cells according to the protocol described in the reference Wei et al, J. Biol. Chem. (1992) 267, 13398-13405 [14].

The mark [10] stands for this setting: N-terminal mutant of ACE from CHO cells, read-out: Ki Active N-terminal ACE.

T1 sequence (P12821 30-1306 H988K/H992K): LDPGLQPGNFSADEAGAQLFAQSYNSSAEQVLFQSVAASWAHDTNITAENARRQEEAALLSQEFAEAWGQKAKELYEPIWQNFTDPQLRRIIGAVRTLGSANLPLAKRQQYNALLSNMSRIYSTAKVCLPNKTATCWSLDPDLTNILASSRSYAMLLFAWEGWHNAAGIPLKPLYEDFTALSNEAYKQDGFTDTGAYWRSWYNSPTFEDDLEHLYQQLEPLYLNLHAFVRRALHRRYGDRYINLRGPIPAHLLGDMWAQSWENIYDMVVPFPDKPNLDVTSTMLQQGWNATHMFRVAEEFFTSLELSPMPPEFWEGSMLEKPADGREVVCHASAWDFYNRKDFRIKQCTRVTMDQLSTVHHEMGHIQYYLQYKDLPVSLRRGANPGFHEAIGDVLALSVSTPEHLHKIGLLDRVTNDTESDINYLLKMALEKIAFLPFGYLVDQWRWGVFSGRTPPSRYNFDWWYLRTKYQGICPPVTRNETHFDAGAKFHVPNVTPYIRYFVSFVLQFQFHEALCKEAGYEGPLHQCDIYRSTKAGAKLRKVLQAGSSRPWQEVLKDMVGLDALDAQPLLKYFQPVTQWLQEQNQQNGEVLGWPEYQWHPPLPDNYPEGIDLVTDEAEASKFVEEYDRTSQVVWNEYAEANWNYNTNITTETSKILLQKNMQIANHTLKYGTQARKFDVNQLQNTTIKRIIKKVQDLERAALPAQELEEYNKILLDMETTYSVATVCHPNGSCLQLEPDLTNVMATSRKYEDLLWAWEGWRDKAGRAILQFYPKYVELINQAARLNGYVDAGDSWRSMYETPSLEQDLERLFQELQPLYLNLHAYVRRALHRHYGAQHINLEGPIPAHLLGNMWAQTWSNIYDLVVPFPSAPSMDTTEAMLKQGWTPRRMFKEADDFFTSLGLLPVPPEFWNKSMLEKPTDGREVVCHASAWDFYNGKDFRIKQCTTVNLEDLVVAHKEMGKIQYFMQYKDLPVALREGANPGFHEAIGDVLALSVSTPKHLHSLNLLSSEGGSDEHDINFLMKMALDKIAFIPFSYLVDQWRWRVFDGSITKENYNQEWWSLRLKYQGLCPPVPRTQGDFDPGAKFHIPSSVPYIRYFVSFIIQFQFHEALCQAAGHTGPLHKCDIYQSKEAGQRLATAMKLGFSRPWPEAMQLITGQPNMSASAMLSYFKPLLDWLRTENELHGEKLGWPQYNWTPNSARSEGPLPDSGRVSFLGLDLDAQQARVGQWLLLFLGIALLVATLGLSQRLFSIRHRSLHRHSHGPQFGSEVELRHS
T2 sequence (P12821 30-1306 H390K/H394K): as the sequence (P12821 30-1306 H988K/H992K) above, with H361K, H365K, K959H, K963H counted along it
T3 sequence (P12821 30-1306): as the sequence (P12821 30-1306 H988K/H992K) above, with K959H, K963H counted along it

A word on the Ki: it is a measure of affinity in units of concentration, obtained from inhibition or displacement. Regarding `CC(=O)N[C@@H](CC(=O)O)C(=O)NC(Cc1ccccc1)P(=O)(O)CC(C)C(=O)N[C@@H](C)C(N)=O` (stereo partly drawn) [Ac-Asp-Pheψ (PO2CH2) Ala-AlaNH2, Ac-Asp-PheΨ(PO2CH2)Ala-Ala-NH2], in data set [1] (setting [10]), the Ki amounted to 25 nM. Further, in [1], the “degree of selectivity in favour of the N-terminal site (FIG. 3)” value was “improve the degree of selectivity in favour of the N-terminal site”.
For the molecule `CC(=O)N[C@@H](C)C(=O)NC(Cc1ccccc1)P(=O)(O)CC(C)C(=O)N[C@@H](C)C(N)=O` (stereo partly shown) [Ac-Ala-Pheψ (PO2CH2) Ala-AlaNH2], the figures for the Ki in data set [2] and in data set [1] (setting [10]) were 200 nM and 15 nM, respectively.
As for `CC(=O)N[C@@H](CO)C(=O)N[C@@H](CC(=O)O)C(=O)N[C@@H](CCCCN)C(=O)N1CCC[C@H]1C(=O)O` [AcSDKP, N-Acetyl-Seryl-Aspartyl-Lysyl-Proline] (Ac-SDKP-OH), the “hydrolysed more quickly by the N-terminal domain than by the C-terminal domain” value in data set [3] is given as 50 times.
As for `C[C@H](CS)C(=O)N1CCC[C@H]1C(=O)O` [captopril], the “increase of the plasma level of AcSDKP” value in data set [4] is 6 to 7 fold.
As to `CC(=O)N[C@@H](CC(=O)O)C(=O)NC(Cc1ccccc1)P(=O)(O)CC(C)C(=O)N[C@@H](C)C(=O)O` (stereo partly shown) [Ac-Asp-Pheψ (PO2CH2) Ala-AlaOH], the values for the Ki in data set [2] and in data set [1] (setting [10]) were 7 nM and 2 nM, respectively.
Regarding `CC(=O)N[C@@H](CC(=O)O)C(=O)N[C@@H](Cc1ccccc1)P(=O)(O)C[C@@H](C)C(=O)N[C@@H](C)C(N)=O` [RXP 407, Ac-Asp-(R)Phe(PO2CH2)-(S)Ala-Ala-NH2], the “plasma level of Ac-SDKP peptide (FIG. 8)” value in [5] is “very significant increase”. For the same molecule, the inhibitory constant (Ki) in data set [1] (setting [10]) was 12 nM. Besides, the Ki in data set [1] (value drawn in plasma concentration figure, read-out: Ki of RXP 407 (dotted curve of FIG. 7)) was found to be 20 nM. For the same molecule, the “plasma renin level (FIG. 9)” value in [6] is given as “does not induce an increase in renin”. Further, in data set [7], the Total is recorded as 100.09±7 % of injected radioactivity; the eliminated in urine worked out at 87%; the “metabolism (structure of the product in urine and faeces)” value is “does not undergo any metabolism”; the “product detected in the airways” value is on record as “No trace of this product is detected”. The dose excreted in [7] (iv, total radioactivity) was found to be 13%. Further, the “plasma RXP 407 concentration” value in [8] turned out to be 100 ng/mL. Moreover, the “IC50 values with respect to the N and C-terminal sites of natural ACE (inflection points, FIG. 6)” value in [9] is “compatible with the Ki values measured using the ACE mutants”.
As to proline, in [1], the “degree of selectivity in favour of the N-terminal site (FIG. 3)” value is recorded as “improve the degree of selectivity in favour of the N-terminal site”.
As for `CC(CP(=O)(O)C(Cc1ccccc1)NC(=O)[C@@H](N)CC(=O)O)C(=O)N[C@@H](C)C(=O)O` (stereo partly shown) [H2N-Asp-Pheψ (PO2CH2) Ala-AlaOH], the Ki in data set [2] turned out to be 60 nM; in data set [1] (setting [10]), 2 nM.
For the molecule `NCCCC[C@H](N[C@@H](CCc1ccccc1)C(=O)O)C(=O)N1CCC[C@H]1C(=O)O` [Lisinopril, reference compound], the “plasma renin level (FIG. 9)” value in [6] is recorded as “induces an increase in the plasma renin level”.
With `CC(CP(=O)(O)C(Cc1ccccc1)NC(=O)[C@@H](N)CC(=O)O)C(=O)N[C@@H](C)C(N)=O` (stereo partly shown) [H2N-Asp-Pheψ (PO2CH2) Ala-AlaNH2], the Ki in data set [2] came out at 800 nM; in [1] (setting [10]) it was 5 nM.

The values above are taken from patent US6482797B1, “N-terminal site selective inhibitors of human angiotensin conversion enzyme (ACE)” (Commissariat A l'Energie Atomique, priority 1998, dated 2002).
